From US9675697B2 (THE REGENTS OF THE UNIVERSITY OF MICHIGAN, priority 2013, dated 2017)
Where two headings read alike, the source gives them in different places.

How the values were obtained:
BRD2 BD1 [1] = target: T1, BRD2 BD1 (Homo sapiens (Human), UniProt P25440); assay: OctetRED biolayer interferometry (BLI) binding assay
Procedure: (§1) Binding affinities of synthesized compounds to BRD2 BD1 and BD2, BRD3 BD1 and BD2, and BRD4 BD1 and BD2 were also determined by a label free binding assay using the OctetRED label free biolayer interferometry (BLI) binding assay.
(§2) BLI measures interference pattern changes of light reflected from an optical layer and a biolayer containing protein targets only or complexed with interacting partners. The assay principle is similar to the surface plasmon resonance (SPR) assay in which the target protein is immobilized on an optical surface and then exposed to potential binding partners in solution. The interaction between the binding partner and the immobilized protein changes the optical properties of the biosensors, resulting in the wavelength shift of reflecting light which will change the interference pattern. Association and dissociation rates can be obtained by fitting the real time wavelength shift of the based on a proper binding model, from which KD values can be obtained thereafter.
(§3) Biotin labeled BRD proteins (10 μg/ml) in kinetic assay buffer (PBS, pH 7.4, 0.1% BSA and 0.01% Tween-20) were immobilized on Super Streptavidin (SSA) sensors for 15 minutes followed by washing in kinetic buffer for 10 minutes to eliminate any loose non-specific immobilization. […] These protein coated sensors were then immersed into the testing compound solutions, starting from the one with the lowest concentration, where compound association occurs and then returned to the fresh buffer for the dissociation. The same operation was repeated for the next solution with higher concentration up to the one with the highest concentration. […] For each kinetic cycle, kinetic curves for association and dissociation were obtained from raw sensorgrams by using the double reference subtraction protocol included in the analysis program (Data Analysis 7.0) provided by the manufacturer, in which nonspecific interaction and buffer drift were both corrected. The association and dissociation rate constants (kon and koff) were determined using the global fitting protocol in the analysis program based on a reversible 1:1 binding model. The equilibrium association constant (KA) was calculated thereafter. All binding data were collected at 30 degree. Assay plates were kept being shaken at 1000 RPM in the whole experiment time period to avoid mass transport effect.

BRD2 BD2 [2] = target: T2, BRD2 BD2 (Homo sapiens (Human), UniProt P25440); assay: as above
T2 sequence (P25440 344-453): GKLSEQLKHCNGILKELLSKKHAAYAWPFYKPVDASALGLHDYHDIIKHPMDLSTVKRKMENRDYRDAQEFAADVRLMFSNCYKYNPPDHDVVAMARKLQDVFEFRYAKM
Procedure: as §1, §2, §3

[3] = system: leukemia MOLM-13 cell line; assay: 4-day cell viability assay, CellTiter-Glo; format: cell-based; settings: 4 days, read-out: Cell Growth Inhibition (IC50 (nM)) MOLM-13 Cell Line (CellTiter-Glo assay)
Procedure: (§4) The effect of representative BET bromodomain inhibitors on cell viability was determined in a 4-day proliferation assay. Cells were maintained in the appropriate culture medium with 10% FBS at 37° C. and an atmosphere of 5% CO2. All the cell lines were used within three months of thawing fresh vials.
(§5) Cells were seeded in 96-well flat bottom (Corning COSTAR, Corning, N.Y., cat#3595) or white opaque cell culture plates (BD Falcon, cat#353296) at a density of 3,000-10,000 cells/well in 75 μl of culture medium. Compounds were serially diluted in the appropriate medium, and 75 μl of the diluted compounds were added to the appropriate wells of the cell plate. After the addition of compounds, the cells were incubated at 37° C. in an atmosphere of 5% CO2 for 4 days. Cell viability was determined using the CellTiter-Glo® Luminescent Cell Viability Assay Kit (Promega, Madison, Wis.) for MOLM-13 cells and WST (2-(2-methoxy-4-nitrophenyl)-3-(4-nitrophenyl)-5-(2,4-disulfophenyl)-2H-tetrazolium, monosodium salt) Cell Counting-8 Kit (Dojindo Molecular Technologies, Inc., Rockville, Md.) for MDA-MB-436 cells according to the manufacturers' instructions.
For the CellTiter-Glo assay, 100 μl of CellTiter-Glo® Reagent was added to each well, and then the plates were incubated at room temperature for 10-20 minutes. The luminescent signal was measured using a Tecan Infinite M1000 multimode microplate reader (Tecan, Morrisville, N.C.). The readings were normalized to the DMSO-treated cells and the IC50 was calculated by nonlinear regression (four parameters sigmoid fitted with variable slope, least squares fit, and no constraint) analysis using the GraphPad Prism 5 software.

[4] = system: breast cancer MDA-MB-436 cell line; assay: 4-day cell viability assay, WST; format: cell-based; settings: Homo sapiens, MDA-MB-436, 96 h; 4 days; read-out: Cell Growth Inhibition (IC50 (nM)) MDA-436 Cell Line (WST assay)
Procedure: as §4, §5
For the WST assay, WST-8 reagent was added to each well at a final concentration of 10% (v/v), and then the plates were incubated at 37° C. for 1-2 hours for color development. The absorbance was measured at 450 nm using a SPECTRAmax PLUS plate reader (Molecular Devices, Sunnyvale, Calif.). The readings were normalized to the DMSO-treated cells and the half maximal inhibitory concentration (IC50) was calculated by nonlinear regression (four parameters sigmoid fitted with variable slope, least squares fit, and no constraint) analysis using the GraphPad Prism 5 software (GraphPad Software, La Jolla, Calif.).

MV4;11 = assay: Cell growth inhibition in leukemia cell line; format: cell-based
AML-2 = assay: Cell growth inhibition in leukemia cell line; format: cell-based
Procedure: as §4, §5

K562 = assay: Cell growth inhibition in leukemia cell line; format: cell-based; settings: Homo sapiens
BRD2 BD1 [5] = target: T1, BRD2 BD1; assay: FP competitive binding assay using Cpd. No. 350 as the probe
Procedure: (§8) Fluorescence Polarization (FP) competitive binding studies (see above) were carried out using the FAM labeled fluorescent probe Cpd. No. 350 to determine binding affinities of representative compounds to both BD1 and BD2 of BRD2, BRD3, and BRD4 proteins. Equilibrium dissociation constants (Id) values of Cpd. No. 350 to these six proteins were determined from protein saturation experiments by monitoring the total fluorescence polarization of mixtures composed with the fluorescent probe at a fixed concentration and proteins with increasing concentrations up to full saturation. Serial dilutions of testing protein were mixed with Cpd. No. 350 to a final volume of 200 μl in the assay buffer. […] Plates were incubated at room temperature for 30 minutes with gentle shaking to assure equilibrium. […] Kd values of Cpd.
(§9) The IC50 and Ki values of compounds were determined in a competitive binding experiment as described above. […] FP values were measured as described above. IC50 values were determined by nonlinear regression fitting of the competition curves.

BRD2 BD2 [6] = target: T2, BRD2 BD2; assay: as above
BRD3 BD1 [7] = target: T3, BRD3 BD1 (Homo sapiens (Human), UniProt Q15059); assay: OctetRED biolayer interferometry (BLI) binding assay
T3 sequence (Q15059 34-140): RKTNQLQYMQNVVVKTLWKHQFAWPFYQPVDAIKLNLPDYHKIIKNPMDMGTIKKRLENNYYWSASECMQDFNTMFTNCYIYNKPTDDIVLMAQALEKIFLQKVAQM
Procedure: as §1, §2, §3

BRD3 BD2 [8] = target: T4, BRD3 BD2 (Homo sapiens (Human), UniProt Q15059); assay: as above
T4 sequence (Q15059 306-415): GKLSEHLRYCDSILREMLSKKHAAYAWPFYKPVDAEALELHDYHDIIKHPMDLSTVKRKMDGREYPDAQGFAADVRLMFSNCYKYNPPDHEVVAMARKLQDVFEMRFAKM
Procedure: as §1, §2, §3

BRD4 BD1 [9] = target: T5, BRD4 BD1 (Homo sapiens (Human), UniProt O60885); assay: as above
Procedure: as §1, §2, §3

BRD4 BD2 [10] = target: T6, BRD4 BD2 (Homo sapiens (Human), UniProt O60885); assay: as above
Procedure: as §1, §2, §3

MOLM-13 = assay: Cell growth inhibition, CellTiter-Glo, acute leukemia cell line; format: cell-based; settings: Homo sapiens, MOLM-13, 96 h, 4 days
Procedure: (§6) Cell growth inhibitory activity of representative BET bromodomain inhibitors was determined using CellTiter-Glo® Luminescent Cell Viability Assay. For leukemia cell lines MV-4-11 (ATCC, Manassas, Va.) and MOLM-13 (DSMZ, Germany), cells were seeded in 96-well white opaque cell culture plates at a density of 10,000 cells/well with serially diluted compounds and incubated at 37° C. in an atmosphere of 95% air and 5% CO2 for 4 days. Cell viability was determined using the CellTiter-Glo® Luminescent Cell Viability Assay Kit (Promega, Madison, Wis.) according to the manufacture's instruction. Briefly, a volume of CellTiter-Glo® Reagent equal to the volume of cell culture medium was added to each well, and then the plates were incubated at room temperature for 10-20 minutes. The luminescent signal was measured using a Tecan Infinite M1000 multimode microplate reader (Tecan, Morrisville, N.C.). The half maximal inhibitory concentration (IC50) was calculated using the GraphPad Prism 5 software (GraphPad Software, La Jolla, Calif.).

MV-4-11 = assay: as above; format: cell-based; settings: Homo sapiens, MV4-11, 96 h, 4 days
Procedure: as §6

BRD4 BD1 [11] = target: T5, BRD4 BD1; assay: FP competitive binding assay using Cpd. No. 350 as the probe
BRD4 BD2 [12] = target: T6, BRD4 BD2; assay: as above
Procedure: as §8, §9

BRD2 BD1 [13] = target: T1, BRD2 BD1; assay: FP protein saturation experiment with probe Cpd. No. 350; format: binding; settings: probe 1.5 nM
Procedure: (§7) Fluorescence Polarization (FP) competitive binding studies (see above) were carried out using the FAM labeled fluorescent probe Cpd. No. 350 to determine binding affinities of representative compounds to both BD1 and BD2 of BRD2, BRD3, and BRD4 proteins. Equilibrium dissociation constants (Id) values of Cpd. […] Final Cpd. […] Kd values of Cpd.

BRD2 BD2 [14] = target: T2, BRD2 BD2; assay: as above; format: binding; settings: probe 1.5 nM
Procedure: as §7

BRD3 BD1 [15] = target: T3, BRD3 BD1; assay: as above; format: binding; settings: probe 1.5 nM
Procedure: as §7

BRD3 BD2 [16] = target: T4, BRD3 BD2; assay: as above; format: binding; settings: probe 1.5 nM
Procedure: as §7

BRD4 BD1 [17] = target: T5, BRD4 BD1; assay: as above; format: binding; settings: probe 1.5 nM
Procedure: as §7

BRD4 BD2 [18] = target: T6, BRD4 BD2; assay: as above; format: binding; settings: probe 1.5 nM
Procedure: as §7

prostate VCaP cell line = assay: Cell growth inhibition, Cell TiterGLO, 4 days; format: cell-based; settings: Homo sapiens, VCaP, 96 h, treated 4 days, read-out: VCaP cells (IC50 (nM))
[19] = Homo sapiens, MV4-11, cell growth inhibition

T1 sequence (P25440 74-180): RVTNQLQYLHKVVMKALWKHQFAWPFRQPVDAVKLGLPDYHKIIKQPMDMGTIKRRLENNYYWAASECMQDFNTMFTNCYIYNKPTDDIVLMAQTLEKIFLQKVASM

| Kd (BRD2 BD1 [1]) | Kd (BRD2 BD2 [2]) | IC50 ([3]; Homo sapiens, MOLM-13, 96 h) | IC50 (MV4;11; [19]) | IC50 (AML-2) | IC50 (K562) | Ki (BRD2 BD1 [5]) | Ki (BRD2 BD2 [6]) | Kd (BRD4 BD1 [9]) | Kd (BRD4 BD2 [10]) | Compound | Ki (BRD4 BD1 [11]) | Ki (BRD4 BD2 [12]) | also measured |
| --- | --- | --- | --- | --- | --- | --- | --- | --- | --- | --- | --- | --- | --- |
| 41.2 ± 2.2 nM | 35.9 ± 8.8 nM | 343 ± 5 nM | 65 ± 24 nM | 163 ± 2 nM | > 2000 nM | 12.2 ± 1.7 nM | 22.2 ± 2.8 nM |  |  | COc1cc2c(cc1-c1c(C)noc1C)[nH]c1ccnc(-c3c(C)nn(C)c3C)c12 [Cpd. No. 25, 4-(8-methoxy-1-(1,3,5-trimethyl-1H-pyrazol-4-yl)-5H-pyrido[4,3-b]indol-7-yl)-3,5-dimethylisoxazole] |  |  | IC50 [4]: 119 nM |
| 33.8 ± 8.2 nM | 11 ± 4.7 nM |  |  |  |  |  |  | 27 ± 14.5 nM | 10.2 ± 4.5 nM | COc1cc2c(cc1-c1c(C)noc1C)[nH]c1ncnc(-c3c(C)[nH]c4ccccc34)c12 [Cpd. No. 44] |  |  | Kd (BRD3 BD1 [7]; BLI, read-out: Kd (nM) BRD3 BD1): 17 ± 7 nM; Kd (BRD3 BD2 [8]; BLI, read-out: Kd (nM) BRD3 BD2): 10.6 ± 1.1 nM; IC50 (MOLM-13): < 100 nM; IC50 (MV-4-11): < 100 nM |
|  |  |  |  |  |  |  |  |  |  | COc1cc2c(cc1-c1c(C)noc1C)[nH]c1nc(C(=O)NC3CCN(CCCNC(=O)c4ccc(-c5c6ccc(=O)cc-6oc6cc(O)ccc56)c(C(=O)O)c4)CC3)nc(-c3ccnc4ccc(F)cc34)c12 [Cpd. No. 350] |  |  | Kd (BRD2 BD1 [13]): 2 nM; Kd (BRD2 BD2 [14]): 2.2 nM; Kd (BRD3 BD1 [15]): 6.5 nM; Kd (BRD3 BD2 [16]): 0.6 nM; Kd (BRD4 BD1 [17]): 5.5 nM; Kd (BRD4 BD2 [18]): 3 nM |
| 25.6 ± 3.7 nM |  | 104 ± 16 nM | 17 ± 3 nM | 104 ± 5 nM | > 2000 nM | 11.1 ± 1 nM | 11.7 ± 3 nM | 29 ± 8.8 nM | 12.9 ± 2.1 nM | CCc1n[nH]c(CC)c1-c1nccc2[nH]c3cc(-c4c(C)noc4C)c(OC)cc3c12 [Cpd. No. 23, 4-(1-(3,5-diethyl-1H-pyrazol-4-yl)-8-methoxy-5H-pyrido[4,3-b]indol-7-yl)-3,5-dimethylisoxazole] | 24.7 ± 1 nM | 12.2 ± 1.6 nM | IC50 (prostate VCaP cell line): 117 nM |

| Compound | Kd (BRD2 BD1 [1]) | Kd (BRD2 BD2 [2]) | IC50 ([3]; Homo sapiens, MOLM-13, 96 h) | IC50 (MV4;11; [19]) | IC50 (AML-2) | IC50 (K562) | Ki (BRD2 BD1 [5]) | Ki (BRD2 BD2 [6]) | Kd (BRD4 BD1 [9]) | Kd (BRD4 BD2 [10]) | Ki (BRD4 BD1 [11]) | Ki (BRD4 BD2 [12]) | also measured |
| --- | --- | --- | --- | --- | --- | --- | --- | --- | --- | --- | --- | --- | --- |
| COc1cc2c(cc1-c1c(C)noc1C)[nH]c1ccnc(-c3c(C)n[nH]c3C)c12 [Cpd. No. 22, 4-(1-(3,5-dimethyl-1H-pyrazol-4-yl)-8-methoxy-5H-pyrido[4,3-b]indol-7-yl)-3,5-dimethylisoxazole] | 34 ± 2.1 nM | 24.4 ± 6.2 nM |  |  | 101 ± 22 nM | > 2000 nM | 21 ± 3.3 nM | 15.4 ± 3.2 nM | 40 ± 6.4 nM | 27.9 ± 6.8 nM | 44.1 ± 6.4 nM | 16.1 ± 2.8 nM | Kd (BRD3 BD1 [7]): 17.9 ± 8.8 nM; Kd (BRD3 BD2 [8]): 18.7 ± 4.9 nM; IC50 [3]: 183 ± 38 nM; IC50 (MV4;11; cell growth inhibition): 61 ± 28 nM |
